{"source": "ChEMBL document CHEMBL4028852", "about": "“Design of a Chemical Probe for the Bromodomain and Plant Homeodomain Finger-Containing (BRPF) Family of Proteins” (J Med Chem, 2017)", "key": {"[1]": {"target": "T1, Transcription intermediary factor 1-alpha (Homo sapiens, UniProt O15164)", "T1 sequence (O15164 whole entry)": "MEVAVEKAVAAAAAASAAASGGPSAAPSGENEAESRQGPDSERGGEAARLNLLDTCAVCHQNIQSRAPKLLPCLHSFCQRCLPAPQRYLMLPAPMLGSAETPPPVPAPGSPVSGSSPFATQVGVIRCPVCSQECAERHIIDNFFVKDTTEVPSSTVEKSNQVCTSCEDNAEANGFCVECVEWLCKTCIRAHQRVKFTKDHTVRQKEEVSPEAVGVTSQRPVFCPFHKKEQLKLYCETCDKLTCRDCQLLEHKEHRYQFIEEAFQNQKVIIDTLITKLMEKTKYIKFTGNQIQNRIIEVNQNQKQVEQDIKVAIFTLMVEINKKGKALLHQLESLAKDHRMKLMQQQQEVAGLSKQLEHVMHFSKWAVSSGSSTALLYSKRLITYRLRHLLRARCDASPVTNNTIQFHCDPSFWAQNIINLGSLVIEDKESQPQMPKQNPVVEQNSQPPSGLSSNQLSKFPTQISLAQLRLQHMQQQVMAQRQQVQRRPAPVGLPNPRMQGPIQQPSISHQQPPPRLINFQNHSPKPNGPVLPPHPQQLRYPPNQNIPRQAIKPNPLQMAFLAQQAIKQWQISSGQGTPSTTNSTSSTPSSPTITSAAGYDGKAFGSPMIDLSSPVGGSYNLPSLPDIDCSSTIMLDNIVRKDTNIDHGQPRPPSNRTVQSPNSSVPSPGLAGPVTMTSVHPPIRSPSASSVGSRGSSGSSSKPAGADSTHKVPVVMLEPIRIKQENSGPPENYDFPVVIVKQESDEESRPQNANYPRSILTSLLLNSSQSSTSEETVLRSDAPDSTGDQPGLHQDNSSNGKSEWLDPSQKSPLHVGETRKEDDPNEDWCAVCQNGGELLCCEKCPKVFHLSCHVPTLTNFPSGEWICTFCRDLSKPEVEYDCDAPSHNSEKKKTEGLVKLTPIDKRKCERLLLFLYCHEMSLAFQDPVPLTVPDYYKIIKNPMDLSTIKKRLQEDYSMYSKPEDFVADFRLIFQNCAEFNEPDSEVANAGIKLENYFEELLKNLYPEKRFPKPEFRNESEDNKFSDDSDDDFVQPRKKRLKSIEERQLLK", "test": "Inhibition of human TRIM24 bromodomain (790 to 977 residues) expressed in Escherichia coli BL21 after 1 hr by BROMOscan assay"}, "[2]": {"target": "Bromodomain-containing protein 4 (Homo sapiens, UniProt O60885)", "test": "Inhibition of human BRD4 bromodomain 1 (unknown origin) using [H-YSGRGKacGGKacGLGKacGGAKacRHRK(Biotin)-OH peptide as substrate after 30 mins by alphaScreen assay"}, "[3]": {"target": "T1, Transcription intermediary factor 1-alpha", "test": "Inhibition of TRIM24 (unknown origin) using tetra-acetylated histone 4/ mono-acetylated K14 histone 3 as substrate after 30 mins by alphascreen assay"}, "[4]": {"test": "Apparent permeability across apical to basolateral side in human Caco2 cells at 10 uM after 2 hrs by LC-MS/MS analysis", "type": "ADME, cell-based", "conditions": "Caco-2"}, "[5]": {"test": "Elimination half life in CD1 mouse at 1 mg/kg, iv by UPLC-MS/MS analysis", "type": "ADME, organism-based", "conditions": "in vivo, read-out: beta t1/2 (converted)"}, "Kv4.3/KChIP2": {"target": "T2, Kv4.3/KChIP2 (Homo sapiens, UniProt Q9NS61+Q9UK17)", "T2 sequence (Q9UK17 whole entry)": "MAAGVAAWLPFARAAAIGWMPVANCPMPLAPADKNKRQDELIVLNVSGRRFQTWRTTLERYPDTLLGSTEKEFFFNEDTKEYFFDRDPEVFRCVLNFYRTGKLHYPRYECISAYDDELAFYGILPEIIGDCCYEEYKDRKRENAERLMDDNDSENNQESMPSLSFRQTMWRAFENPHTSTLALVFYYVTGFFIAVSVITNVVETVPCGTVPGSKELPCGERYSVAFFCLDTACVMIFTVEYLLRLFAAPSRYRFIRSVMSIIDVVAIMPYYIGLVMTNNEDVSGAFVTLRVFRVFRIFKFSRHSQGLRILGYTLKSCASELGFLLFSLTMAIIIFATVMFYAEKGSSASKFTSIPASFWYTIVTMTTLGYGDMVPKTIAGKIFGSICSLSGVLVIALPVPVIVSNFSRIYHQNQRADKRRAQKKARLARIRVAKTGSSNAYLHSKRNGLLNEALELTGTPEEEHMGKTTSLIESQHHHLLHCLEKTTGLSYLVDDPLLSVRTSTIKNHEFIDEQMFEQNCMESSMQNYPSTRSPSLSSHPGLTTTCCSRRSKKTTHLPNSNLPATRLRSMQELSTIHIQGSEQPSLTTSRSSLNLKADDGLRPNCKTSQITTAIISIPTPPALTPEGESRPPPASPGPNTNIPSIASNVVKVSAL", "T2 sequence (Q9NS61 whole entry)": "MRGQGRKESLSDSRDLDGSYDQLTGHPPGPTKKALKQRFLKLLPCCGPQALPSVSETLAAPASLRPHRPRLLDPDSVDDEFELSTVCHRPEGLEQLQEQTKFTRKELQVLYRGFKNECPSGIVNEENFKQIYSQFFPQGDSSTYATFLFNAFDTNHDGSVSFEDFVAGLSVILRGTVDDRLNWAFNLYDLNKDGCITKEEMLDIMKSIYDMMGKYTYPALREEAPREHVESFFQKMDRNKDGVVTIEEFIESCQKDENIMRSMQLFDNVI", "test": "Inhibition of Kv4.3/KChIP2 (unknown origin) at 30 uM", "type": "protein-complex assay"}, "hERG": {"target": "hERG (Homo sapiens, UniProt Q12809)", "sequence (Q12809 whole entry)": "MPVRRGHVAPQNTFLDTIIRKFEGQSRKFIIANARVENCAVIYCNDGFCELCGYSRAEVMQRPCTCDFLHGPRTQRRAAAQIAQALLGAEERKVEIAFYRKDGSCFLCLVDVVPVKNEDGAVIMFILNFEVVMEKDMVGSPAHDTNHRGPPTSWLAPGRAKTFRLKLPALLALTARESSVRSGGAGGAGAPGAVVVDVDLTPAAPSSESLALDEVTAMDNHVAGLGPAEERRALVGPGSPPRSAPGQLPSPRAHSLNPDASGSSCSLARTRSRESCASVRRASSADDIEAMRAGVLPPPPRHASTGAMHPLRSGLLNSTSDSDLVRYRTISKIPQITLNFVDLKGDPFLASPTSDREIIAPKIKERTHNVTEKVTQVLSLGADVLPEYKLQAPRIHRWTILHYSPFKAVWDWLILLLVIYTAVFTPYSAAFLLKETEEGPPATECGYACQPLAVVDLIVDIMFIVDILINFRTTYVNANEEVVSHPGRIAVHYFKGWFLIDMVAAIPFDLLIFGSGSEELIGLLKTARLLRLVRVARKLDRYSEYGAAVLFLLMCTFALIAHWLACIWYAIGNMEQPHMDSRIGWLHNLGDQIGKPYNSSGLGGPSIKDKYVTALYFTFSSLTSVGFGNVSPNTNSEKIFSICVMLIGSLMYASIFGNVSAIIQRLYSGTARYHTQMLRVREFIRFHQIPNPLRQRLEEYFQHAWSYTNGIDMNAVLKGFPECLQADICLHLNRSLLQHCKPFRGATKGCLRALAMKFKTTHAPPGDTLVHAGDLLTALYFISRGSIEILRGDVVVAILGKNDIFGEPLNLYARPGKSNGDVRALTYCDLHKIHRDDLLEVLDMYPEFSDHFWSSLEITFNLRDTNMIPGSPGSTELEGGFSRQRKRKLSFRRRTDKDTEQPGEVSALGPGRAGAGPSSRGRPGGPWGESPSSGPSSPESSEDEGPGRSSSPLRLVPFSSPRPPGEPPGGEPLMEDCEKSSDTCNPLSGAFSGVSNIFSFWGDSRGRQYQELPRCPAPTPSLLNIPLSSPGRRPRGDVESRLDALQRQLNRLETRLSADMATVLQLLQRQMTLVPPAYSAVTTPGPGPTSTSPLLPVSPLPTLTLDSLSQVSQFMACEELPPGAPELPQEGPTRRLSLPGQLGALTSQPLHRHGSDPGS", "test": "Inhibition of human ERG at 30 uM"}, "Kir2.1": {"target": "T3, Kir2.1 (Homo sapiens, UniProt P63252)", "T3 sequence (P63252 whole entry)": "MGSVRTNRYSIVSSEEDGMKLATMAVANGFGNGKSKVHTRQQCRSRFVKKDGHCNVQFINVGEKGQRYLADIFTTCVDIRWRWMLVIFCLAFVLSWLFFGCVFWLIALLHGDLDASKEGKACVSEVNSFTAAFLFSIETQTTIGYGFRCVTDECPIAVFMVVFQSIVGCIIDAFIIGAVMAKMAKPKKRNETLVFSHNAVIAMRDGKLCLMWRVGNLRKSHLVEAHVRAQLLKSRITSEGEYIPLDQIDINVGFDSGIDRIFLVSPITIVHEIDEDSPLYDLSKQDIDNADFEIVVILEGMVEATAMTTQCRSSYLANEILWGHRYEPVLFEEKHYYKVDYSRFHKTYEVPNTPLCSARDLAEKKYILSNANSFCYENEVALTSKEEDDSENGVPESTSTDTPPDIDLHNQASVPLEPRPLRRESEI", "test": "Inhibition of Kir2.1 (unknown origin) at 30 uM"}}, "data": [{"smiles": "COc1cc(C#N)ccc1S(=O)(=O)Nc1ccc2c(c1)cc(C)c(=O)n2C", "values": [{"measurement": "IC50", "setting": "[1]", "value": 1.6, "unit": "µM"}, {"measurement": "IC50", "setting": "[2]", "value": "> 10", "unit": "µM"}, {"measurement": "IC50", "setting": "[3]", "value": "> 10", "unit": "µM"}, {"measurement": "Papp A→B at 2 h, 10 µM", "setting": "[4]", "value": 11, "unit": "×10⁻⁶ cm/s"}, {"measurement": "half-life", "setting": "[5]", "value": 1.2, "unit": "h"}, {"measurement": "inhibition at 30 µM", "setting": "Kv4.3/KChIP2", "value": "< 40", "unit": "%"}, {"measurement": "inhibition at 30 µM", "setting": "hERG", "value": "< 40", "unit": "%"}, {"measurement": "inhibition at 30 µM", "setting": "Kir2.1", "value": "< 40", "unit": "%"}]}]}
